According to patent US11746098B2, “Proteasome activity enhancing compounds” (Proteostasis Therapeutics, Inc., priority 2018, dated 2023):
pIC50: −log10 of the molar value.

Target: USP14 (Homo sapiens, UniProt P54578)
Test: USP14 Inhibition Assay
Format: biochemical
Details: average value from a minimum of two experimental determinations, read-out: IC50 Category
Excerpt: The activity of the compound described herein to inhibit USP14 can be measured using previously described methodology [B. H. Lee et al. Nature 2010, 467 (9), 179, the contents of which are expressly incorporated by reference herein].
Example 6: USP14 Inhibition Assay

With `COc1cc(NS(=O)(=O)c2ccc(-n3c(C)cc(C(=O)CN4CCCCC4)c3C)cc2)nc(OC)n1` [Compound 1, N-(2,6-Dimethoxypyrimidin-4-yl)-4-(2,5-dimethyl-3-(2-(piperidin-1-yl)acetyl)-1H-pyrrol-1-yl)benzenesulfonamide] as the compound, how does the pIC50 read?
The pIC50 was less than 5.30.

With `COc1cc(NS(=O)(=O)c2ccc(-n3c(C)cc(C(=O)CN4CCC(O)CC4)c3C)cc2)nc(OC)n1` [Compound 2, N-(2,6-Dimethoxypyrimidin-4-yl)-4-(3-(2-(4-hydroxypiperdin-1-yl)acetyl)-2,5-dimethyl-1H-pyrrol-1-yl)benzenesulfonamide] as the compound, how does the pIC50 read?
The pIC50 was less than 5.30.

How did the pIC50 turn out when `Cc1cc(C(=O)CN2CCC[C@@H]2C(N)=O)c(C)n1-c1ccc(Cl)cc1` [Compound 3, (R)-1-(2-(1-(4-Chlorophenyl)-2,5-dimethyl-1H-pyrrol-3-yl)-2-oxoethyl)pyrrolidine-2-carboxamide] was run?
Its pIC50 is less than 5.30.

`COc1cc(NS(=O)(=O)c2ccc(-n3c(C)cc(C(=O)CN4CCCC4)c3C)cc2)nc(OC)n1` [Compound 4, N-(2,6-Dimethoxypyrimidin-4-yl)-4-(2,5-dimethyl-3-(2-(pyrrolidin-1-yl)acetyl)-1H-pyrrol-1-yl)benzenesulfonamide] was tested. Which pIC50 did it give?
The pIC50 was less than 5.30.

`Cc1cc(C(=O)CN2CCCCC2)c(C)n1-c1cccc2ccccc12` [Compound 5, 1-(2,5-Dimethyl-1-(naphthalen-1-yl)-1H-pyrrol-3-yl)-2-(piperidin-1-yl)ethanone] was tested. Which pIC50 did it give?
The pIC50 was less than 5.30.

`Cc1cc(C(=O)CN2CCCCC2)c(C)n1-c1ccc(O)cc1` [Compound 7, 1-(1-(4-Hydroxyphenyl)-2,5-dimethyl-1H-pyrrol-3-yl)-2-(piperidin-1-yl)ethanone] was tested. Which pIC50 did it give?
The pIC50 was less than 5.30.

`Cc1cc(C(=O)CN2CCCC2)c(C)n1-c1cccc2ccccc12` [Compound 8, 1-(2,5-Dimethyl-1-(naphthalen-1-yl)-1H-pyrrol-3-yl)-2-(pyrrolidin-1-yl)ethanone] was tested. Which pIC50 did it give?
Its pIC50 is less than 5.30.

`Cc1cc(C(=O)CN2CCC(O)CC2)c(C)n1-c1cccc2ccccc12` [Compound 9, 1-(2,5-Dimethyl-1-(naphthalen-1-yl)-1H-pyrrol-3-yl)-2-(4-hydroxypiperidin-1-yl)ethanone] was tested. Which pIC50 did it give?
The pIC50 was less than 5.30.

`Cc1cc(C(=O)CN[C@H](C)C2CCCCC2)c(C)n1-c1ccc(Cl)cc1` [Compound 11, (R)-1-(1-(4-Chlorophenyl)-2,5-dimethyl-1H-pyrrol-3-yl)-2-((1-cyclohexylethyl)amino)ethan-one] was tested. Which pIC50 did it give?
Its pIC50 is less than 5.30.

With `Cc1cc(C(=O)CN2CCCCC2)c(C)n1-c1ccc(S(C)(=O)=O)cc1` [Compound 12, 1-(2,5-Dimethyl-1-(4-(methylsulfonyl)phenyl)-1H-pyrrol-3-yl)-2-(piperidin-1-yl)ethanone] as the compound, how does the pIC50 read?
The pIC50 was less than 5.30.

With `Cc1cc(C(=O)CN2CCC(O)CC2)c(C)n1-c1ccc(S(C)(=O)=O)cc1` [Compound 13, 1-(2,5-Dimethyl-1-(4-(methylsulfonyl)phenyl)-1H-pyrrol-3-yl)-2-(4-hydroxypiperidin-1-yl)ethanone] as the compound, how does the pIC50 read?
Its pIC50 is less than 5.30.

With `Cc1cc(C(=O)CN2CCCCC2)c(C)n1-c1cc(F)cc(F)c1` [Compound 14, 1-(1-(3,5-Difluorophenyl)-2,5-dimethyl-1H-pyrrol-3-yl)-2-(piperidin-1-yl)ethanone] as the compound, how does the pIC50 read?
Its pIC50 is less than 5.30.

How did the pIC50 turn out when `Cc1cc(C(=O)CN2CCC(O)CC2)c(C)n1-c1cc(F)cc(F)c1` [Compound 15, 1-(1-(3,5-Difluorophenyl)-2,5-dimethyl-1H-pyrrol-3-yl)-2-(4-hydroxypiperidin-1-yl)ethanone] was run?
The pIC50 was less than 5.30.

How did the pIC50 turn out when `Cc1cc(C(=O)CN2CCCC2)c(C)n1-c1cc(Cl)cc(Cl)c1` [Compound 16, 1-(1-(3,5-Dichlorophenyl)-2,5-dimethyl-1H-pyrrol-3-yl)-2-(pyrrolidin-1-yl)ethanone] was run?
Its pIC50 is less than 5.30.

How did the pIC50 turn out when `Cc1cc(C(=O)CN2CCCCC2)c(C)n1-c1cc(Cl)cc(Cl)c1` [Compound 17, 1-(1-(3,5-Dichlorophenyl)-2,5-dimethyl-1H-pyrrol-3-yl)-2-(piperidin-1-yl)ethanone] was run?
Its pIC50 is less than 5.30.

How did the pIC50 turn out when `Cc1cc(C(=O)CN2CCC(O)CC2)c(C)n1-c1cc(Cl)cc(Cl)c1` [Compound 18, 1-(1-(3,5-Dichlorophenyl)-2,5-dimethyl-1H-pyrrol-3-yl)-2-(4-hydroxypiperidin-1-yl)ethanone] was run?
Its pIC50 is less than 5.30.

How did the pIC50 turn out when `Cc1cc(C(=O)CN2CCCC2)c(C)n1-c1ccc(O)cc1` [Compound 19, 1-(1-(4-Hydroxyphenyl)-2,5-dimethyl-1H-pyrrol-3-yl)-2-(pyrrolidin-1-yl)ethanone] was run?
Its pIC50 is less than 5.30.

How did the pIC50 turn out when `Cc1cc(C(=O)CN2CCC(O)CC2)c(C)n1-c1ccc(O)cc1` [Compound 20, 1-(1-(4-Hydroxyphenyl)-2,5-dimethyl-1H-pyrrol-3-yl)-2-(4-hydroxypiperidin-1-yl)ethanone] was run?
Its pIC50 is less than 5.30.

`Cc1cc(C(=O)CN2CCC(O)CC2)c(C)n1-c1ccc(C(F)(F)F)cc1` [Compound 21, 1-(2,5-Dimethyl-1-(4-(trifluoromethyl)phenyl)-1H-pyrrol-3-yl)-2-(4-hydroxypiperidin-1-yl)ethanone] was tested. Which pIC50 did it give?
Its pIC50 is less than 5.30.

With `Cc1cc(C(=O)CN2CCCC2)c(C)n1-c1cc(F)cc(F)c1` [Compound 22, 1-(1-(3,5-Difluorophenyl)-2,5-dimethyl-1H-pyrrol-3-yl)-2-(pyrrolidin-1-yl)ethanone] as the compound, how does the pIC50 read?
Its pIC50 is less than 5.30.

How did the pIC50 turn out when `Cc1cc(Cl)cc(C)c1-n1ccc(C(=O)CN2CCCC2)c1` [Compound 23, 1-(1-(4-Chloro-2,6-dimethylphenyl)-1H-pyrrol-3-yl)-2-(pyrrolidin-1-yl)ethanone] was run?
Its pIC50 is less than 5.30.

How did the pIC50 turn out when `Cc1cc(Cl)cc(C)c1-n1ccc(C(=O)CN2CCC(O)CC2)c1` [Compound 24, 1-(1-(4-Chloro-2,6-dimethylphenyl)-1H-pyrrol-3-yl)-2-(4-hydroxypiperidin-1-yl)ethanone] was run?
Its pIC50 is less than 5.30.

With `Cc1cc(C(=O)CN2CCC(C(=O)O)CC2)c(C)n1-c1ccc(Cl)cc1` [Compound 25, 1-(2-(1-(4-Chlorophenyl)-2,5-dimethyl-1H-pyrrol-3-yl)-2-oxoethyl)piperidine-4-carboxylic acid] as the compound, how does the pIC50 read?
The pIC50 was less than 5.30.

How did the pIC50 turn out when `Cc1cc(Cl)cc(C)c1-n1ccc(C(=O)CN2CCCCC2)c1` [Compound 26, 1-(1-(4-Chloro-2,6-dimethylphenyl)-1H-pyrrol-3-yl)-2-(piperidin-1-yl)ethanone] was run?
The pIC50 was less than 5.30.

`Cc1cc(Cl)cc(C)c1-n1cccc1C(=O)CN1CCCCC1` [Compound 27, 1-(1-(4-Chloro-2,6-dimethylphenyl)-1H-pyrrol-2-yl)-2-(piperidin-1-yl)ethanone] was tested. Which pIC50 did it give?
The pIC50 was less than 5.30.

With `Cc1cc(Cl)cc(C)c1-n1cccc1C(=O)CN1CCCC1` [Compound 28, 1-(1-(4-Chloro-2,6-dimethylphenyl)-1H-pyrrol-2-yl)-2-(pyrrolidin-1-yl)ethanone] as the compound, how does the pIC50 read?
The pIC50 was less than 5.30.

`Cc1cc(Cl)cc(C)c1-n1cccc1C(=O)CN1CCC(O)CC1` [Compound 29, 1-(1-(4-Chloro-2,6-dimethylphenyl)-1H-pyrrol-2-yl)-2-(4-hydroxypiperidin-1-yl)ethanone] was tested. Which pIC50 did it give?
The pIC50 was less than 5.30.

`Cc1cc(C(=O)CN2CCCCC2)c(C)n1[C@H]1CC[C@@H](F)CC1` [Compound 32, 1-(1-(cis-4-Fluorocyclohexyl)-2,5-dimethyl-1H-pyrrol-3-yl)-2-(piperidin-1-yl)ethanone] was tested. Which pIC50 did it give?
Its pIC50 is less than 5.30.

With `Cc1ccc(C(=O)CN2CCCCC2)n1-c1ccc(Cl)cc1` [Compound 33, 1-(1-(4-Chlorophenyl)-5-methyl-1H-pyrrol-2-yl)-2-(piperidin-1-yl)ethanone] as the compound, how does the pIC50 read?
The pIC50 was less than 5.30.

With `Cc1cc(C(=O)CN2CCCCC2)c(C)n1C1CCC1` [Compound 35, 1-(1-Cyclobutyl-2,5-dimethyl-1H-pyrrol-3-yl)-2-(piperidin-1-yl)ethanone] as the compound, how does the pIC50 read?
The pIC50 was less than 5.30.

How did the pIC50 turn out when `Cc1cc(C(=O)CN2CCC(O)CC2)c(C)n1C1CCC1` [Compound 36, 1-(1-Cyclobutyl-2,5-dimethyl-1H-pyrrol-3-yl)-2-(4-hydroxypiperidin-1-yl)ethanone] was run?
The pIC50 was less than 5.30.

`Cc1cc(C(=O)CN2CCC(C(=O)OCc3ccccc3)CC2)c(C)n1C1CCC1` [Compound 37, Benzyl 1-(2-(1-cyclobutyl-2,5-dimethyl-1H-pyrrol-3-yl)-2-oxoethyl)piperidine-4-carboxylate] was tested. Which pIC50 did it give?
The pIC50 was less than 5.30.

How did the pIC50 turn out when `Cc1cc(C(=O)CC2CCCNC2)c(C)n1-c1ccc(Cl)cc1` (stereo not shown) [Compound 38, 1-(1-(4-Chlorophenyl)-2,5-dimethyl-1H-pyrrol-3-yl)-2-(piperidin-3-yl)ethanone] was run?
Its pIC50 is less than 5.30.

With `Cc1cc(C(=O)CC2CCNCC2)c(C)n1-c1ccc(Cl)cc1` [Compound 39, 1-(1-(4-Chlorophenyl)-2,5-dimethyl-1H-pyrrol-3-yl)-2-(piperidin-4-yl)ethanone] as the compound, how does the pIC50 read?
Its pIC50 is less than 5.30.

How did the pIC50 turn out when `Cc1cc(C(=O)CNCC2COC(C)(C)O2)c(C)n1-c1ccc(Cl)cc1` (stereo not shown) [Compound 40, 1-(1-(4-Chlorophenyl)-2,5-dimethyl-1H-pyrrol-3-yl)-2-(((2,2-dimethyl-1,3-dioxolan-4-yl)methyl)amino)ethanone] was run?
Its pIC50 is less than 5.30.

`Cc1cc(C(=O)CNCCOCc2ccccc2)c(C)n1-c1ccc(Cl)cc1` [Compound 41, 2-((2-(Benzyloxy)ethyl)amino)-1-(1-(4-chlorophenyl)-2,5-dimethyl-1H-pyrrol-3-yl)ethanone] was tested. Which pIC50 did it give?
The pIC50 was less than 5.30.

How did the pIC50 turn out when `Cc1cc(C(=O)CNCCOCc2ccccc2)c(C)n1-c1ccc(C#N)cc1` [Compound 42, 4-(3-(2-((2-(Benzyloxy)ethyl)amino)acetyl)-2,5-dimethyl-1H-pyrrol-1-yl)benzonitrile] was run?
Its pIC50 is less than 5.30.

How did the pIC50 turn out when `Cc1cc(C(=O)CN(CCOCc2ccccc2)CC(=O)c2cc(C)n(-c3ccc(C#N)cc3)c2C)c(C)n1-c1ccc(C#N)cc1` [Compound 43, 4,4′-(3,3′-(2,2′-((2-(Benzyloxy)ethyl)azanediyl)bis(acetyl))bis(2,5-dimethyl-1H-pyrrole-3,1-diyl))dibenzonitrile] was run?
Its pIC50 is less than 5.30.

How did the pIC50 turn out when `Cc1cc(C(=O)C[N+]2(C)CCCCC2)c(C)n1-c1ccc(Cl)cc1` [Compound 44, 1-(2-(1-(4-Chlorophenyl)-2,5-dimethyl-1H-pyrrol-3-yl)-2-oxoethyl)-1-methylpiperidin-1-ium Iodide] was run?
Its pIC50 is less than 5.30.

How did the pIC50 turn out when `Cc1cc(C(=O)CN2CCCCC2)c(C)n1[C@H]1CC[C@@H](C(=O)OCc2ccccc2)CC1` [Compound 45, cis-Benzyl 4-(2,5-dimethyl-3-(2-(piperidin-1-yl)acetyl)-1H-pyrrol-1-yl)cyclohexanecarboxylate] was run?
Its pIC50 is less than 5.30.
